Laboratory results reported in patent US8133847B2, “Pyrido[2,3-B]pyrazine derivatives useful as herbicidal compounds” (Syngenta Limited, priority 2006, dated 2012).

What was measured:
Assay in all cases: Example B1 herbicidal action, post-emergence, 96-cell seed trays, climatic chamber
Assay type in all cases: in vivo
Stellaria media (STEME) = conditions: Application post-emergence, 1000 mg/l spray equivalent to 1000 g/ha, evaluated after 9 days (100=total damage to plant, 0=no damage to plant)
Experimental: (§1) Seeds of a variety of test species were sown in sterilised standard soil in seed trays each having 96 cells. After cultivation for 8 to 9 days cultivation (post-emergence) under controlled conditions in a climatic chamber (cultivation at 23/17° C., day/night; 13 hours light; 50-60% humidity), the plants were treated with an aqueous spray solution of 1000 mg/l of the active ingredient dissolved in 10% DMSO (dimethyl sulfoxide, CAS RN 67-68-5) as a solvent, equivalent to 1000 g/ha. The plants were grown in the climatic chamber after application at (24/19° C., day/night; 13 hours light; 50-60% humidity) and watered twice daily. After 9 days until the test was evaluated (100=total damage to plant, 0=no damage to plant)

Solanum nigrum (SOLNI) = conditions: Application post-emergence, 1000 mg/l spray equivalent to 1000 g/ha, evaluated after 9 days (100=total damage to plant, 0=no damage to plant)
Experimental: as §1

[1] = test system: Amaranthus retroflexus (AMARE); conditions: Application post-emergence, 1000 mg/l spray equivalent to 1000 g/ha, evaluated after 9 days
Experimental: as §1

[2] = test system: Nasturtium officinale (NAAOF); design: scale not given here; conditions: Application post-emergence, 1000 mg/l spray equivalent to 1000 g/ha, evaluated after 9 days (100=total damage to plant, 0=no damage to plant)
Experimental: as §1

Row | Structure (SMILES) | damage to plant, Stellaria media (STEME) (Stellaria media (STEME)) | damage to plant, Solanum nigrum (SOLNI) (Solanum nigrum (SOLNI)) | damage to plant, Amaranthus retroflexus (AMARE) [1] | damage to plant, Nasturtium officinale (NAAOF) [2]
1 | CCC(=O)Oc1c(-c2ccc(F)cc2Cl)c(=O)[nH]c2nccnc12 [Compound B3] | 2 | 0 | 8 | 0
2 | CC(C)=CC(=O)Oc1c(-c2c(F)ccc(F)c2Cl)c(=O)n(C)c2nccnc12 [Compound C90] | 7 | 8 | 3 | 6
3 | O=c1[nH]c2nccnc2c(O)c1-c1c(Cl)ccc(Cl)c1Cl [Compound A21] | 3 | 5 | 7 | 6
4 | CCOC(=O)Oc1c(-c2c(Cl)cccc2Cl)c(=O)n(C)c2nccnc12 [Compound C36] | 5 | 6 | 5 | 7
5 | CCn1c(=O)c(-c2c(F)ccc(C)c2Cl)c(OC(=O)C(C)C)c2nccnc21 [Compound C127] | 7 | 7 | 2 | 6
6 | Cn1c(=O)c(-c2c(Cl)ccc(Cl)c2Cl)c(OC(=O)C(C)(C)C)c2nccnc21 [Compound C108] | 5 | 3 | 6 | 5
7 | CC(C)Cn1c(=O)c(-c2c(F)ccc(F)c2Cl)c(OC(=O)C(C)(C)C)c2nccnc21 [Compound C48] | 1 | 1 | 0 | 0
8 | CC(C)C(=O)Oc1c(-c2c(Cl)ccc(Cl)c2Cl)c(=O)n(C)c2nccnc12 [Compound C79] | 7 | 6 | 6 | 5
9 | Cn1c(=O)c(-c2cccc(C(F)(F)F)c2Cl)c(OC(=O)C(C)(C)C)c2nccnc21 [Compound C123] | 6 | 6 | 4 | 4
10 | C=CCn1c(=O)c(-c2c(Cl)cccc2Cl)c(OC(=O)OCC)c2nccnc21 [Compound C39] | 6 | 7 | 7 | 6
11 | CCn1c(=O)c(-c2ccccc2OC(F)(F)F)c(OC(C)=O)c2nccnc21 [Compound C27] | 5 | 6 | 7 | 7
12 | Cc1ccc(F)c(-c2c(OC(=O)C(C)C)c3nccnc3n(C)c2=O)c1Cl [Compound C126] | 7 | 7 | 6 | 6
13 | CC(=O)Oc1c(-c2c(Cl)cccc2Cl)c(=O)[nH]c2nccnc12 [Compound B10] | 0 | 0 | 8 | 6
14 | O=c1[nH]c2nccnc2c(O)c1-c1c(Cl)cc(C(F)(F)F)cc1Cl [Compound A14] | 7 | 0 | 6 | 7
15 | CC(=O)Oc1c(-c2ccc(Cl)cc2Cl)c(=O)n(C)c2nccnc12 [Compound C43] | 5 | 3 | 3 | 5
16 | COCCn1c(=O)c(-c2ccc(Cl)cc2Cl)c(OC(C)=O)c2nccnc21 [Compound C9] | 2 | 3 | 0 | 2
17 | Cc1cc(C)c(-c2c(OC(=O)C(C)C)c3nccnc3n(C)c2=O)c(C)c1 [Compound C75] | 7 | 7 | 3 | 6
18 | O=c1[nH]c2nccnc2c(O)c1-c1cc(Cl)ccc1Cl [Compound A3] | 3 | 0 | 8 | 4

Row | Structure (SMILES) | damage to plant, Stellaria media (STEME) (Stellaria media (STEME)) | damage to plant, Solanum nigrum (SOLNI) (Solanum nigrum (SOLNI)) | damage to plant, Amaranthus retroflexus (AMARE) [1] | damage to plant, Nasturtium officinale (NAAOF) [2]
19 | O=c1[nH]c2nccnc2c(O)c1-c1ccc2ccccc2c1 [Compound A29] | 3 | 2 | 2 | 0
20 | C=CCC(=O)Oc1c(-c2c(F)ccc(F)c2Cl)c(=O)n(CC=C)c2nccnc12 [Compound C113] | 8 | 6 | 7 | 6
21 | CCC(C)C(=O)Oc1c(-c2c(F)ccc(F)c2Cl)c(=O)n(C)c2nccnc12 (centres unmarked) [Compound C87] | 2 | 6 | 6 | 4
22 | CCn1c(=O)c(-c2ccccc2OC(F)(F)F)c(OC(=O)C(C)(C)C)c2nccnc21 [Compound C26] | 2 | 0 | 0 | 0
23 | Cn1c(=O)c(-c2cc(C(F)(F)F)ccc2Cl)c(OC(=O)C(C)(C)C)c2nccnc21 [Compound C121] | 7 | 7 | 5 | 6
24 | Cc1cc(C)c(-c2c(O)c3nccnc3[nH]c2=O)c(C)c1 [Compound A30] | 4 | 0 | 7 | 3
25 | CC(C)C(=O)Oc1c(-c2c(F)ccc(F)c2Cl)c(=O)n(CC2CC2)c2nccnc12 [Compound C60] | 5 | 7 | 7 | 8
26 | O=c1[nH]c2nccnc2c(O)c1-c1cc(Cl)cc(Cl)c1Cl [Compound A28] | 2 | 0 | 2 | 3
27 | CCn1c(=O)c(-c2ccccc2Cl)c(OC(C)=O)c2nccnc21 [Compound C185] | 10 | 4 | 4 | 8
28 | CC(C)(C)C(=O)Oc1c(-c2c(Cl)cc(C(F)(F)F)cc2Cl)c(=O)[nH]c2nccnc12 [Compound B41] | 1 | 2 | 2 | 2
29 | O=c1[nH]c2nccnc2c(O)c1-c1cc(Cl)ccc1C(F)(F)F [Compound A19] | 5 | 7 | 6 | 5
30 | Cn1c(=O)c(-c2ccc(Cl)cc2Cl)c(O)c2nccnc21 [Compound D3] | 8 | 8 | 0 | 8
31 | Cn1c(=O)c(-c2c(F)ccc(F)c2Cl)c(OC(=O)c2ccc([N+](=O)[O-])cc2)c2nccnc21 [Compound C51] | 7 | 0 | 7 | 7
32 | O=c1[nH]c2nccnc2c(O)c1-c1cccc(C(F)(F)F)c1Cl [Compound A32] | 0 | 2 | 0 | 0
33 | O=c1[nH]c2nccnc2c(O)c1-c1ccc(Cl)cc1Cl [Compound A1] | 7 | 0 | 0 | 5
34 | CCn1c(=O)c(-c2c(F)ccc(F)c2Cl)c(OC(=O)C(C)C)c2nccnc21 [Compound C11] | 8 | 5 | 9 | 8
35 | CCC(=O)Oc1c(-c2c(Cl)cccc2Cl)c(=O)[nH]c2nccnc12 [Compound B11] | 1 | 0 | 8 | 3
